Counter-ions that a name gives are not always drawn.
System: patients with seasonal allergic rhinitis (SAR)
Test: MP 428 two-week randomized double-blind study: Total Nasal Symptom Score (TNSS), change from baseline
Type: in vivo, human
Design: key to Change from Baseline in AM TNSS, Mean / Change from Baseline in AM TNSS, LS Mean / Change from Baseline in AM TNSS, Median: TNSS sum of 4 symptoms each 0-3 (0=none, 3=severe); change from baseline
Method: A two-week, randomized, double-blind study, which evaluated the effects of the co-administration of ASTELIN® (azelastine hydrochloride (HCl)) and FLONASE® (fluticasone propionate) compared to either product alone in patients with seasonal allergic rhinitis (SAR) was conducted during the 2006 Texas mountain cedar season. After a 5-day placebo lead-in period, 151 patients with moderate-to-severe allergic rhinitis symptoms were randomized to either: (1) (49 total patients) ASTELIN® (azelastine hydrochloride (HCl)) plus placebo saline nasal spray 2 sprays per nostril, 15 minutes apart, twice daily (AM & PM); (2) (50 total patients) FLONASE® (fluticasone propionate) plus placebo saline nasal spray, 2 sprays per nostril, 15 minutes apart, once daily (AM) and two sessions of placebo saline nasal spray, 2 sprays per nostril, 15 minutes apart (PM); or (3) (52 total patients) the co-administration of ASTELIN® (azelastine hydrochloride (HCl)) 2 sprays per nostril plus FLONASE® (fluticasone propionate) 2 sprays per nostril (AM), 15 minutes apart, and ASTELIN® (azelastine hydrochloride (HCl)) 2 sprays per nostril plus placebo saline nasal spray, 15 minutes apart, (PM) for a 2-week double-blind treatment period.
The primary efficacy variable was the change from baseline in the Total Nasal Symptom Score (TNSS), which comprised sneezing, itchy nose, runny nose, and nasal congestion (individual symptoms scores were assigned a value between 0 and 3, where 0=no symptoms and 3=severe symptoms). This study was not statistically designed to assess the differences between ASTELIN® and FLONASE®.

[1] = Day 5, Intent-to-Treat Population
[2] = Day 6, Intent-to-Treat Population
[3] = Day 7, Intent-to-Treat Population
[4] = Day 8, Intent-to-Treat Population
[5] = Day 9, Intent-to-Treat Population

## CN1CCCC(n2nc(Cc3ccc(Cl)cc3)c3ccccc3c2=O)CC1 (racemic) [Azelastine, (±)-1-(2H)-phthalazinone, 4-[(4-chlorophenyl)methyl]-2-(hexahydro-1-methyl-1H-azepin-4-yl)-, mono-hydrochloride]
[1]
  Percent Change from Baseline in AM and PM Combined TNSS, Mean: −23.15%
  Percent Change from Baseline in AM and PM Combined TNSS, Median: −18.64%
  Percent Change from Baseline in PM TNSS, LS Mean: −22.87%
  Percent Change from Baseline in PM TNSS, Mean: −22.50%
  Percent Change from Baseline in PM TNSS, Median: −13.04%
Day 5, Intent-to-Treat Population, ANCOVA model
  Change from Baseline in AM and PM Combined TNSS, LS Mean: −4.46
Day 5, Per-Protocol Population
  Change from Baseline in AM and PM Combined TNSS, LS Mean: −4.43
  Change from Baseline in AM and PM Combined TNSS, Mean: −4.48
  Change from Baseline in AM and PM Combined TNSS, Median: −3.67
  Percent Change from Baseline in AM and PM Combined TNSS, LS Mean: −23.17%
  Percent Change from Baseline in AM and PM Combined TNSS, Mean: −23.15%
  Percent Change from Baseline in AM and PM Combined TNSS, Median: −18.64%
[2]
  Change from Baseline in AM TNSS, LS Mean: −2.01
  Change from Baseline in AM TNSS, Mean: −2.01
  Change from Baseline in AM TNSS, Median: −2.00
  Change from Baseline in AM and PM Combined TNSS, Mean: −4.44
  Change from Baseline in AM and PM Combined TNSS, Median: −3.70
  Change from Baseline in PM TNSS, LS Mean: −2.38
  Change from Baseline in PM TNSS, Mean: −2.43
  Change from Baseline in PM TNSS, Median: −2.00
  Percent Change from Baseline in AM TNSS, LS Mean: −21.14%
  Percent Change from Baseline in AM TNSS, Mean: −21.35%
  Percent Change from Baseline in AM TNSS, Median: −16.67%
  Percent Change from Baseline in AM and PM Combined TNSS, LS Mean: −23.15%
  Percent Change from Baseline in AM and PM Combined TNSS, Mean: −23.13%
  Percent Change from Baseline in AM and PM Combined TNSS, Median: −18.78%
  Percent Change from Baseline in PM TNSS, LS Mean: −25.18%
  Percent Change from Baseline in PM TNSS, Mean: −24.82%
  Percent Change from Baseline in PM TNSS, Median: −20.45%
Day 6, Intent-to-Treat Population, ANCOVA model
  Change from Baseline in AM and PM Combined TNSS, LS Mean: −4.40
Day 6, Per-Protocol Population
  Change from Baseline in AM and PM Combined TNSS, LS Mean: −4.38
  Change from Baseline in AM and PM Combined TNSS, Mean: −4.44
  Change from Baseline in AM and PM Combined TNSS, Median: −3.70
  Percent Change from Baseline in AM and PM Combined TNSS, LS Mean: −23.16%
  Percent Change from Baseline in AM and PM Combined TNSS, Mean: −23.13%
  Percent Change from Baseline in AM and PM Combined TNSS, Median: −18.78%
[3]
  Change from Baseline in AM TNSS, LS Mean: −2.52
  Change from Baseline in AM TNSS, Mean: −2.52
  Change from Baseline in AM TNSS, Median: −2.20
  Change from Baseline in AM and PM Combined TNSS, Mean: −5.09
  Change from Baseline in AM and PM Combined TNSS, Median: −4.67
  Change from Baseline in PM TNSS, LS Mean: −2.54
  Change from Baseline in PM TNSS, Mean: −2.57
  Change from Baseline in PM TNSS, Median: −2.25
  Percent Change from Baseline in AM TNSS, LS Mean: −26.26%
  Percent Change from Baseline in AM TNSS, Mean: −26.58%
  Percent Change from Baseline in AM TNSS, Median: −25.00%
  Percent Change from Baseline in AM and PM Combined TNSS, LS Mean: −26.40%
  Percent Change from Baseline in AM and PM Combined TNSS, Mean: −26.52%
  Percent Change from Baseline in AM and PM Combined TNSS, Median: −23.31%
  Percent Change from Baseline in PM TNSS, LS Mean: −26.39%
  Percent Change from Baseline in PM TNSS, Mean: −26.20%
  Percent Change from Baseline in PM TNSS, Median: −23.81%
Day 7, Intent-to-Treat Population, ANCOVA model
  Change from Baseline in AM and PM Combined TNSS, LS Mean: −5.05
Day 7, Per-Protocol Population
  Change from Baseline in AM and PM Combined TNSS, LS Mean: −5.01
  Change from Baseline in AM and PM Combined TNSS, Mean: −5.09
  Change from Baseline in AM and PM Combined TNSS, Median: −4.67
  Percent Change from Baseline in AM and PM Combined TNSS, LS Mean: −26.32%
  Percent Change from Baseline in AM and PM Combined TNSS, Mean: −26.52%
  Percent Change from Baseline in AM and PM Combined TNSS, Median: −23.31%
[4]
  Change from Baseline in AM TNSS, LS Mean: −2.65
  Change from Baseline in AM TNSS, Mean: −2.62
  Change from Baseline in AM TNSS, Median: −2.50
  Change from Baseline in AM and PM Combined TNSS, Mean: −5.38
  Change from Baseline in AM and PM Combined TNSS, Median: −5.00
  Change from Baseline in PM TNSS, LS Mean: −2.69
  Change from Baseline in PM TNSS, Mean: −2.76
  Change from Baseline in PM TNSS, Median: −2.75
  Percent Change from Baseline in AM TNSS, LS Mean: −27.73%
  Percent Change from Baseline in AM TNSS, Mean: −27.83%
  Percent Change from Baseline in AM TNSS, Median: −25.00%
  Percent Change from Baseline in AM and PM Combined TNSS, LS Mean: −28.22%
  Percent Change from Baseline in AM and PM Combined TNSS, Mean: −28.13%
  Percent Change from Baseline in AM and PM Combined TNSS, Median: −23.73%
  Percent Change from Baseline in PM TNSS, LS Mean: −27.94%
  Percent Change from Baseline in PM TNSS, Mean: −28.17%
  Percent Change from Baseline in PM TNSS, Median: −27.27%
Day 8, Intent-to-Treat Population, ANCOVA model
  Change from Baseline in AM and PM Combined TNSS, LS Mean: −5.37
Day 8, Per-Protocol Population
  Change from Baseline in AM and PM Combined TNSS, LS Mean: −5.33
  Change from Baseline in AM and PM Combined TNSS, Mean: −5.38
  Change from Baseline in AM and PM Combined TNSS, Median: −5.00
  Percent Change from Baseline in AM and PM Combined TNSS, LS Mean: −28.14%
  Percent Change from Baseline in AM and PM Combined TNSS, Mean: −28.13%
  Percent Change from Baseline in AM and PM Combined TNSS, Median: −23.73%
[5]
  Change from Baseline in AM TNSS, LS Mean: −2.57
  Change from Baseline in AM TNSS, Mean: −2.52
